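Tested at 5 concentrations; 48 h exposure; 96-well plates; endpoints linearly interpolated, else capped at highest concentration. TGI denotes the concentration required for complete inhibition of growth.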 Where a SMILES comes first, the peptide text is derived from it. The star is where a group is joined. Boc = CC(C)(C)OC(=O)*
How the values were obtained:
Assay in all cases: DTP human tumour cell line panel, 48 h
[1] = tested on: SK-MEL-28 melanoma
[2] = tested on: DLD-1 colon
[3] = tested on: NCI-H226 lung
[4] = tested on: A498 renal
[5] = tested on: U251 CNS
[6] = tested on: LOX IMVI melanoma
[7] = tested on: M14 melanoma
[8] = tested on: DMS 273 small cell lung
[9] = tested on: K-562 leukemia
[10] = tested on: HL-60(TB) leukemia
[11] = tested on: KM20L2 colon
[12] = tested on: DMS 114 small cell lung

Row | Structure (SMILES) | TGI [1] [µM] | TGI [2] [µM] | TGI [3] [µM] | TGI [4] [µM] | TGI [5] [µM] | TGI [6] [µM] | TGI [7] [µM] | TGI [8] [µM] | TGI [9] [µM] | TGI [10] [µM] | TGI [11] [µM] | TGI [12] [µM]
1 | CCCCCCCCCCCCCCCCCCN(C)CC(COP(=O)([O-])OCC[N+](C)(C)C)OC (stereo not drawn) | 56.8 | 17.3 | 42.4 | 39.3 | 10.1 | 26 | 29.6 | 5.4 | 54.6 | 11.1 | 4.16 | 20.5
2 | CCN(CC)C(=O)C(C)n1cc(C)c(=O)[nH]c1=O (stereo not drawn) | > 100 | – | – | – | > 100 | > 100 | > 100 | > 100 | > 100 | > 100 | > 100 | > 100
3 | O=C1c2ccc(O)c(O)c2C(=O)c2c(O)ccc(O)c21 | > 100 | > 100 | 50.5 | 53.8 | > 100 | 44.3 | 54 | 61.7 | 70.9 | – | 70.8 | 32.6
4 | CCN1CCC(O)(c2ccc(Cl)cc2)C(C(=O)c2ccc(Cl)cc2)C1 (stereo not drawn) | > 100 | > 100 | – | > 100 | > 100 | > 100 | > 100 | > 100 | > 100 | > 100 | > 100 | –
5 | COc1ccc(-c2cc3[nH]nc(N)c3c(=O)o2)cc1 | > 100 | > 100 | – | > 100 | > 100 | > 100 | > 100 | > 100 | > 100 | > 100 | > 100 | > 100
6 | Nc1nc2c3nc(Nc4ccccc4)sc3nc(=O)n2c2sc(Nc3ccccc3)nc12 | > 100 | > 100 | > 100 | > 100 | > 100 | – | > 100 | > 100 | > 100 | > 100 | > 100 | –
7 | NC(=S)N/N=C\c1nccc2ccccc12 | 0.951 | – | 0.54 | 2.39 | > 58.6 | 11.8 | 2.42 | – | > 50 | 40.4 | – | –
8 | Cc1ccc(NC(=O)c2cc(S(=O)(=O)Nc3nc4ncccc4[nH]3)c(SSc3cc(Cl)c(C(=O)Nc4ccc(C)cc4)cc3S(=O)(=O)Nc3nc4ncccc4[nH]3)cc2Cl)cc1 | > 100 | – | > 100 | > 100 | > 100 | > 100 | > 100 | – | > 100 | > 100 | – | –
9 | O=C(NCCCCCCNC(=O)c1cc(-c2ccccc2)nc2ccccc12)c1cc(-c2ccccc2)nc2ccccc12 | > 100 | – | > 100 | > 100 | > 100 | > 100 | > 100 | – | > 100 | > 100 | – | –
10 | NC(N)=Nc1ccc(CC(N)C(=O)O)cc1 (stereo not drawn) | > 12.5 | – | > 12.5 | > 12.5 | > 12.5 | > 12.5 | > 12.5 | – | > 12.5 | > 12.5 | – | –
11 | Cn1c(-c2cccc([N+](=O)[O-])c2)[n+](C)c2ccccc21 | > 100 | – | > 100 | > 100 | > 100 | > 100 | > 100 | – | > 100 | > 100 | – | –
12 | O=C1CC(c2ccccc2)n2cccc21 (stereo not drawn) | > 100 | – | > 100 | > 100 | > 100 | > 100 | > 100 | – | > 100 | > 100 | – | –
13 | CC(C)/C(Cl)=N\OC(=O)Nc1cccc(Cl)c1 | 35.4 | – | 38.9 | 33.2 | 34.4 | 8.71 | 11 | – | 4.7 | 3.3 | – | –
14 | O=[N+]([O-])c1cc(-c2nc(-c3ccccc3)c(-c3ccccc3)[nH]2)c(O)c([N+](=O)[O-])c1 | > 100 | – | 40.7 | 40.5 | 29.5 | 49.1 | 46.4 | – | > 100 | 70.1 | – | –
15 | COC(=O)C(Cc1c[nH]c2ccccc12)NC(=O)C(Cc1c[nH]c2ccccc12)NC(=O)C(Cc1c[nH]c2ccccc12)NC(=O)C(Cc1c[nH]c2ccccc12)NC(=O)C(Cc1c[nH]c2ccccc12)NC(=O)C(Cc1c[nH]c2ccccc12)NC(=O)C(Cc1c[nH]c2ccccc12)NC(=O)C(Cc1c[nH]c2ccccc12)NC(=O)OC(C)(C)C (stereo not drawn) (Boc-WWWWWWWW-OMe; configuration not given here) | > 100 | – | > 100 | 55.6 | > 100 | > 100 | 25.1 | – | > 100 | 53.5 | – | –
16 | N#Cc1ccc(-n2c3ccccc3c3ccc4c(c32)C(=O)C=CC4=O)cc1 | 13.1 | – | > 74.5 | 11 | 17.8 | > 25.4 | 7.57 | – | > 100 | > 100 | – | –
